From PMC6277434, “Discovery of a potent HMG-CoA reductase degrader that eliminates statin-induced reductase accumulation and lowers cholesterol” (Nature Communications, 2018) come the findings set out here.

The target in test [1] is T1, HMGCR (TM1-8)-GFP (Cricetulus griseus, UniProt P00347).
T1 sequence (P00347 1-346): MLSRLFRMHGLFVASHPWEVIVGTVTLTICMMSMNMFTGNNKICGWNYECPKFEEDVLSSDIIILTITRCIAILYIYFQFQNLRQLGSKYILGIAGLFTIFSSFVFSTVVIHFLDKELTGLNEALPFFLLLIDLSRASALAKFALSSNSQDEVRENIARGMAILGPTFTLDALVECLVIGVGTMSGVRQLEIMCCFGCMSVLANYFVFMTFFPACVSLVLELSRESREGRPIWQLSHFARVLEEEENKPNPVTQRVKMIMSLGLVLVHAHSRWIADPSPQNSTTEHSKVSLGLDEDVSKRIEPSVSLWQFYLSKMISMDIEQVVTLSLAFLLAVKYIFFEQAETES
Kind of test: HMGCR (TM1-8)-GFP fluorescent assay (high-content imaging) in CHG cells. The note with it: read-out: Mean (HMGCR (TM1-8)-GFP signal relative to 0 μM = 100).
Experimental: (§1) We thus generated a cell line stably expressing the transmembrane domain of HMGCR fused with green fluorescent protein (GFP) as a reporter (HMGCR (TM1-8)-GFP) (Fig. 2a).
(§2) CHO-7 cells were transfected with pCMV-HMGCR (TM1-8)-GFP using FuGENE HD. Twenty-four hours, cells were switched to medium B supplemented with 5% FBS and selected in the presence of 1 mg ml^−1 G418 for 2 weeks. Surviving colonies were isolated and confirmed for GFP expression by immunoblotting and immunofluorescence. The resulting CHO-7/HMGCR (TM1-8)-GFP stable cell line (CHG) was maintained in medium B supplemented with 5% FBS and 200 μg ml^−1 G418.
(§3) CHG cells were treated as described in figure legends. Briefly, cells were seeded at day 0 in 96-well black plate (3904, Corning) at a density of 1.5 × 10^4 cells per well, in medium B containing with 5% LPDS. Day 1, corresponding compounds were added as figure legends described in medium B with 5% LPDS, 1 μM lovastatin, 50 μM sodium mevalonate for 16 h. Then cells were fixed with 4% paraformaldehyde for 20 min, washed with PBS for three times, and stained with 2 μg ml^−1 Hoechst 33342.
(§4) The fluorescent images (GFP and Hoechst channel) were captured using an Operatta High-Content Imaging System (PerkinElmer) with a ×20 objective. The cytoplasmic GFP fluorescence was measured with the Harmony Software (PerkinElmer). Five random selected filed per well were captured, and about 3000 cells were used to determine the mean cytoplasmic GFP fluorescent intensity per cell after subtracting background GFP intensity. The average GFP intensity of DMSO-treated cells was defined as 100.

Test [2] addresses T1, HMGCR (TM1-8)-GFP.
Experimental: as §1, §2, §3, §4

With `C=CCC(O)CCC[C@@H](C)C1CCC2C3C(CC[C@@]21C)[C@@]1(C)CC[C@H](O)C(C)(C)C1=C[C@@H]3O` (stereo partly drawn) [Compound 88], at HMGCR (TM1-8)-GFP [1], the remaining activity at 0.156 µM came out at 82.3%, the remaining activity at 0.313 µM is 75.6%, the remaining activity at 0.625 µM turned out to be 67.9% and the remaining activity at 1.25 µM stood at 37.1%. In addition, on HMGCR (TM1-8)-GFP [1], the remaining activity at 2.5 µM is 17.6%, the remaining activity at 5 µM came out at 12% and the remaining activity at 10 µM amounted to 16.6%. Besides, the DC50 at HMGCR (TM1-8)-GFP [2] was 910 nM.
In the case of `C[C@H](CCCCC(=O)O)C1CCC2C3C(CC[C@@]21C)[C@@]1(C)CC[C@H](O)C(C)(C)C1=C[C@@H]3O` (stereo partly drawn) [Compound 92], on HMGCR (TM1-8)-GFP [1], the remaining activity at 0.156 µM worked out at 104%, the remaining activity at 0.313 µM was 98.4%, the remaining activity at 0.625 µM amounted to 98.7% and the remaining activity at 1.25 µM was found to be 96.3%. In addition, at HMGCR (TM1-8)-GFP [1], the remaining activity at 2.5 µM was found to be 87%, the remaining activity at 5 µM came out at 71.8% and the remaining activity at 10 µM stood at 58%. The molecule also displayed a DC50 on HMGCR (TM1-8)-GFP [2] of 12300 nM.
Take `C[C@H](CCCCC(C)(C)O)C1CCC2C3C(CC[C@@]21C)[C@@]1(C)CC[C@H](O)C(C)(C)C1=C[C@@H]3O` (stereo partly drawn) [Compound 100]: at HMGCR (TM1-8)-GFP [1], the remaining activity at 0.156 µM was found to be 78.6%, the remaining activity at 0.313 µM stood at 69.4%, the remaining activity at 0.625 µM was found to be 51.6% and the remaining activity at 1.25 µM turned out to be 33.5%. Also, on HMGCR (TM1-8)-GFP [1], the remaining activity at 2.5 µM was determined as 21.6%, the remaining activity at 5 µM turned out to be 14.8% and the remaining activity at 10 µM was determined as 12.4%. Moreover, the DC50 on HMGCR (TM1-8)-GFP [2] is 510 nM.
Turning to `CCC(O)(CC)CCCC[C@@H](C)C1CCC2C3C(CC[C@@]21C)[C@@]1(C)CC[C@H](O)C(C)(C)C1=C[C@@H]3O` (stereo partly drawn) [Compound 101], at HMGCR (TM1-8)-GFP [1], the remaining activity at 0.156 µM amounted to 86.6%, the remaining activity at 0.313 µM was determined as 74%, the remaining activity at 0.625 µM amounted to 52.3% and the remaining activity at 1.25 µM worked out at 35.6%. Moreover, on HMGCR (TM1-8)-GFP [1], the remaining activity at 2.5 µM is 22.8%, the remaining activity at 5 µM was 15.2% and the remaining activity at 10 µM came out at 15.2%. Moreover, on HMGCR (TM1-8)-GFP [2], the DC50 is 590 nM.
As for `C=CCC(O)(CC=C)CCCC[C@@H](C)C1CCC2C3C(CC[C@@]21C)[C@@]1(C)CC[C@H](O)C(C)(C)C1=C[C@@H]3O` (stereo partly drawn) [Compound 102], on HMGCR (TM1-8)-GFP [1], the remaining activity at 0.156 µM amounted to 108%, the remaining activity at 0.313 µM came out at 104%, the remaining activity at 0.625 µM was 86.9% and the remaining activity at 1.25 µM was 56.5%. Moreover, on HMGCR (TM1-8)-GFP [1], the remaining activity at 2.5 µM stood at 37.2%, the remaining activity at 5 µM was determined as 31.7% and the remaining activity at 10 µM was 31.8%. Further, the DC50 on HMGCR (TM1-8)-GFP [2] came out at 1920 nM.
As to `CC(O)CCCC[C@@H](C)C1CCC2C3C(CC[C@@]21C)[C@@]1(C)CC[C@H](O)C(C)(C)C1=C[C@@H]3O` (stereo partly drawn) [Compound 107], at HMGCR (TM1-8)-GFP [1], the remaining activity at 0.156 µM stood at 90.7%, the remaining activity at 0.313 µM amounted to 83.1%, the remaining activity at 0.625 µM stood at 72.6% and the remaining activity at 1.25 µM worked out at 51.8%. In addition, on HMGCR (TM1-8)-GFP [1], the remaining activity at 2.5 µM amounted to 26.9%, the remaining activity at 5 µM turned out to be 17.1% and the remaining activity at 10 µM was determined as 13.1%. This molecule also came in with a DC50 at HMGCR (TM1-8)-GFP [2] of 1290 nM.
Consider `CCC(O)CCCC[C@@H](C)C1CCC2C3C(CC[C@@]21C)[C@@]1(C)CC[C@H](O)C(C)(C)C1=C[C@@H]3O` (stereo partly drawn) [Compound 108], for which, on HMGCR (TM1-8)-GFP [1], the remaining activity at 0.156 µM was 90.7%, the remaining activity at 0.313 µM is 77.2%, the remaining activity at 0.625 µM stood at 56.5% and the remaining activity at 1.25 µM turned out to be 39.2%. Further, at HMGCR (TM1-8)-GFP [1], the remaining activity at 2.5 µM was 29.4%, the remaining activity at 5 µM stood at 25.5% and the remaining activity at 10 µM turned out to be 18.6%. The DC50 on HMGCR (TM1-8)-GFP [2] amounted to 1030 nM.
In the case of `C=CCC(O)CCCC[C@@H](C)C1CCC2C3C(CC[C@@]21C)[C@@]1(C)CC[C@H](O)C(C)(C)C1=C[C@@H]3O` (stereo partly drawn) [Compound 109], at HMGCR (TM1-8)-GFP [1], the remaining activity at 0.156 µM was 91%, the remaining activity at 0.313 µM is 76.5%, the remaining activity at 0.625 µM is 54.8% and the remaining activity at 1.25 µM is 36.4%. Besides, at HMGCR (TM1-8)-GFP [1], the remaining activity at 2.5 µM is 23.5%, the remaining activity at 5 µM is 18.8% and the remaining activity at 10 µM was 25.2%. The molecule further came in with a DC50 on HMGCR (TM1-8)-GFP [2] of 910 nM.
As to `C[C@H](CCCCCCO)C1CCC2C3C(CC[C@@]21C)[C@@]1(C)CC[C@H](O)C(C)(C)C1=C[C@@H]3O` (stereo partly drawn) [Compound 113], at HMGCR (TM1-8)-GFP [1], the remaining activity at 0.156 µM was 94.7%, the remaining activity at 0.313 µM amounted to 91.3%, the remaining activity at 0.625 µM is 72.7% and the remaining activity at 1.25 µM turned out to be 57.4%. For the same molecule, on HMGCR (TM1-8)-GFP [1], the remaining activity at 2.5 µM stood at 35.8%, the remaining activity at 5 µM is 22% and the remaining activity at 10 µM turned out to be 24.1%. On HMGCR (TM1-8)-GFP [2], this molecule had a DC50 of 1720 nM.
As to `C[C@H](CCCCCC(C)(C)O)C1CCC2C3C(CC[C@@]21C)[C@@]1(C)CC[C@H](O)C(C)(C)C1=C[C@@H]3O` (stereo partly drawn) [Compound 117], on HMGCR (TM1-8)-GFP [1], the remaining activity at 0.156 µM was found to be 92%, the remaining activity at 0.313 µM was 72.4%, the remaining activity at 0.625 µM amounted to 47.7% and the remaining activity at 1.25 µM worked out at 29.5%. On HMGCR (TM1-8)-GFP [1], the remaining activity at 2.5 µM is 20.4%, the remaining activity at 5 µM amounted to 16.1% and the remaining activity at 10 µM worked out at 20.4%. This molecule also registered a DC50 at HMGCR (TM1-8)-GFP [2] of 710 nM.
Regarding `CCC(O)(CC)CCCCC[C@@H](C)C1CCC2C3C(CC[C@@]21C)[C@@]1(C)CC[C@H](O)C(C)(C)C1=C[C@@H]3O` (stereo partly drawn) [Compound 118], at HMGCR (TM1-8)-GFP [1], the remaining activity at 0.156 µM came to 93.8%, the remaining activity at 0.313 µM worked out at 76.6%, the remaining activity at 0.625 µM was 55.5% and the remaining activity at 1.25 µM came to 38.3%. Further, on HMGCR (TM1-8)-GFP [1], the remaining activity at 2.5 µM worked out at 26.4%, the remaining activity at 5 µM turned out to be 20.4% and the remaining activity at 10 µM is 21.8%. This molecule returned a DC50 at HMGCR (TM1-8)-GFP [2] of 970 nM.
Regarding `C=CCC(O)(CC=C)CCCCC[C@@H](C)C1CCC2C3C(CC[C@@]21C)[C@@]1(C)CC[C@H](O)C(C)(C)C1=C[C@@H]3O` (stereo partly drawn) [Compound 119], at HMGCR (TM1-8)-GFP [1], the remaining activity at 0.156 µM was 92.9%, the remaining activity at 0.313 µM is 96%, the remaining activity at 0.625 µM amounted to 91.6% and the remaining activity at 1.25 µM worked out at 81.1%. In addition, at HMGCR (TM1-8)-GFP [1], the remaining activity at 2.5 µM stood at 62.7%, the remaining activity at 5 µM worked out at 42.5% and the remaining activity at 10 µM worked out at 28.9%. The molecule also had a DC50 on HMGCR (TM1-8)-GFP [2] of 4130 nM.
Consider `CC(O)CCCCC[C@@H](C)C1CCC2C3C(CC[C@@]21C)[C@@]1(C)CC[C@H](O)C(C)(C)C1=C[C@@H]3O` (stereo partly drawn) [Compound 124], for which, at HMGCR (TM1-8)-GFP [1], the remaining activity at 0.156 µM stood at 88%, the remaining activity at 0.313 µM turned out to be 78.3%, the remaining activity at 0.625 µM turned out to be 62.2% and the remaining activity at 1.25 µM worked out at 38.2%. In addition, at HMGCR (TM1-8)-GFP [1], the remaining activity at 2.5 µM came out at 19.5%, the remaining activity at 5 µM came to 14.7% and the remaining activity at 10 µM stood at 21.8%. In addition, the DC50 at HMGCR (TM1-8)-GFP [2] was determined as 920 nM.
As for `CCC(O)CCCCC[C@@H](C)C1CCC2C3C(CC[C@@]21C)[C@@]1(C)CC[C@H](O)C(C)(C)C1=C[C@@H]3O` (stereo partly drawn) [Compound 125], on HMGCR (TM1-8)-GFP [1], the remaining activity at 0.156 µM turned out to be 83.6%, the remaining activity at 0.313 µM is 77.5%, the remaining activity at 0.625 µM came out at 65.3% and the remaining activity at 1.25 µM came out at 50.2%. Further, at HMGCR (TM1-8)-GFP [1], the remaining activity at 2.5 µM stood at 41.6%, the remaining activity at 5 µM amounted to 34.7% and the remaining activity at 10 µM came out at 33.6%. In addition, the DC50 at HMGCR (TM1-8)-GFP [2] is 1830 nM.
Take `C=CCC(O)CCCCC[C@@H](C)C1CCC2C3C(CC[C@@]21C)[C@@]1(C)CC[C@H](O)C(C)(C)C1=C[C@@H]3O` (stereo partly drawn) [Compound 126]: at HMGCR (TM1-8)-GFP [1], the remaining activity at 0.156 µM was 76.4%, the remaining activity at 0.313 µM amounted to 72.3%, the remaining activity at 0.625 µM was 58.7% and the remaining activity at 1.25 µM turned out to be 50.3%. In addition, on HMGCR (TM1-8)-GFP [1], the remaining activity at 2.5 µM stood at 44.6%, the remaining activity at 5 µM was 45.5% and the remaining activity at 10 µM was determined as 44.4%. At HMGCR (TM1-8)-GFP [2], the DC50 was 2450 nM.
